In ChEMBL document CHEMBL1201862, “PubChem BioAssay data set” (2004):
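The compound was tested at five concentrations on cells cultured in 96-well plates, with a 48-hour exposure period. At the GI50, growth is halved.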 The source made the active and inactive calls. No stated cut-off is given here; in the data, active = GI50 up to about 1.1 µM and inactive = higher.

Assays:
Assay in all cases: inhibition of tumour cell growth, NCI panel, 48 h
A498 = test system: A498
COLO 205 = test system: COLO 205
HCT-116 = test system: HCT-116
HOP-92 = test system: HOP-92
HT-29 = test system: HT-29
IGROV-1 = test system: IGROV-1
KM12 = test system: KM12
M14 = test system: M14
MCF7 = test system: MCF7
MOLT-4 = test system: MOLT-4
NCI-H226 = test system: NCI-H226
NCI/ADR-RES = test system: NCI/ADR-RES
PC-3 = test system: PC-3
RXF 393 = test system: RXF 393
SF-268 = test system: SF-268
SF-295 = test system: SF-295
SK-MEL-28 = test system: SK-MEL-28
SW-620 = test system: SW-620
UACC-62 = test system: UACC-62
UO-31 = test system: UO-31

| Structure (SMILES) | GI50 (A498) | GI50 (COLO 205) | GI50 (HCT-116) | GI50 (HOP-92) | GI50 (HT-29) | GI50 (IGROV-1) | GI50 (KM12) | GI50 (M14) | GI50 (MCF7) | GI50 (MOLT-4) | GI50 (NCI-H226) | GI50 (NCI/ADR-RES) | GI50 (PC-3) | GI50 (RXF 393) | GI50 (SF-268) | GI50 (SF-295) | GI50 (SK-MEL-28) | GI50 (SW-620) | GI50 (UACC-62) | GI50 (UO-31) |
| --- | --- | --- | --- | --- | --- | --- | --- | --- | --- | --- | --- | --- | --- | --- | --- | --- | --- | --- | --- | --- |
| C#CCN(Cc1ccc2nc(OC)c(OC)nc2c1)c1cc(OC)c(OC)c(OC)c1 | 35.5 µM (inactive) | 17.4 µM (inactive) | 16.7 µM (inactive) | 7.43 µM (inactive) | 21.8 µM (inactive) | 19.1 µM (inactive) | 15 µM (inactive) | 22.1 µM (inactive) | 11.9 µM (inactive) | 16.9 µM (inactive) | 15.7 µM (inactive) | 10.7 µM (inactive) | 26.1 µM (inactive) | 14.9 µM (inactive) | 25.1 µM (inactive) | 16.3 µM (inactive) | 40.9 µM (inactive) | 30.2 µM (inactive) | 18.9 µM (inactive) | 22.1 µM (inactive) |
| CCOC(=O)/C(C(C)=O)=C(\OC(C)=O)c1ccncc1C(=O)O | > 100 µM (inactive) | > 100 µM (inactive) | > 100 µM (inactive) | > 100 µM (inactive) | > 100 µM (inactive) | > 100 µM (inactive) | > 100 µM (inactive) | > 100 µM (inactive) | > 100 µM (inactive) | > 100 µM (inactive) | > 100 µM (inactive) | > 100 µM (inactive) | > 100 µM (inactive) | > 100 µM (inactive) | > 100 µM (inactive) | > 100 µM (inactive) | > 100 µM (inactive) | > 100 µM (inactive) | > 100 µM (inactive) | > 100 µM (inactive) |
| CC(=O)c1c(C(F)(F)F)[n+]([O-])c2cc(Cl)c(Cl)cc2[n+]1[O-] | 1.15 µM (inactive) | 0.746 µM (active) | 0.249 µM (active) | 0.195 µM (active) | 0.792 µM (active) | 0.111 µM (active) | 0.109 µM (active) | 1.21 µM (inactive) | 0.265 µM (active) | 0.0798 µM (active) | 1.46 µM (inactive) | 1.5 µM (inactive) | 1.31 µM (inactive) | 0.895 µM (active) | 1.15 µM (inactive) | 0.719 µM (active) | 1.88 µM (inactive) | 0.393 µM (active) | 1.26 µM (inactive) | 0.41 µM (active) |
| Oc1c(Cl)c(Cl)c(Cl)c(Cl)c1Cl [PENTACHLOROPHENOL] | 19 µM (inactive) | 31 µM (inactive) | 17.4 µM (inactive) | 18.6 µM (inactive) | 21.2 µM (inactive) | 18.8 µM (inactive) | 19.5 µM (inactive) | 20.9 µM (inactive) | 24.9 µM (inactive) | 20.6 µM (inactive) | 28.4 µM (inactive) | 17.9 µM (inactive) | 18.9 µM (inactive) | 23.2 µM (inactive) | 31.1 µM (inactive) | 17.2 µM (inactive) | 24 µM (inactive) | 24.5 µM (inactive) | 16.4 µM (inactive) | 17 µM (inactive) |
| O/N=C1\CSc2ccccc2C1 | 51.6 µM (inactive) | > 100 µM (inactive) | > 100 µM (inactive) | 59.4 µM (inactive) | > 100 µM (inactive) | > 100 µM (inactive) | > 100 µM (inactive) | > 100 µM (inactive) | > 100 µM (inactive) | > 100 µM (inactive) | > 100 µM (inactive) | > 100 µM (inactive) | > 100 µM (inactive) | 72.3 µM (inactive) | > 100 µM (inactive) | > 100 µM (inactive) | > 100 µM (inactive) | > 100 µM (inactive) | > 100 µM (inactive) | > 100 µM (inactive) |
| N=c1oc2ccc(Cl)cc2cc1C(=O)NCc1ccccc1 | 63.5 µM (inactive) | > 100 µM (inactive) | > 100 µM (inactive) | 28.9 µM (inactive) | > 100 µM (inactive) | > 100 µM (inactive) | 43.4 µM (inactive) | > 100 µM (inactive) | > 100 µM (inactive) | 31.2 µM (inactive) | > 100 µM (inactive) | 27.4 µM (inactive) | 98.9 µM (inactive) | 17.8 µM (inactive) | > 100 µM (inactive) | > 100 µM (inactive) | > 100 µM (inactive) | > 100 µM (inactive) | 31.6 µM (inactive) | > 61.7 µM (inactive) |
| CCOCC(=O)N[C@H]1CCc2cc(OC)c(OC)c(OC)c2-c2ccc(SC)c(=O)cc21 | < 0.01 µM (active) | < 0.01 µM (active) | < 0.01 µM (active) | < 0.01 µM (active) | < 0.01 µM (active) | < 0.01 µM (active) | < 0.01 µM (active) | < 0.01 µM (active) | < 0.01 µM (active) | < 0.01 µM (active) | 0.0465 µM (active) | 0.0159 µM (active) | < 0.0327 µM (active) | < 0.01 µM (active) | < 0.01 µM (active) | < 0.01 µM (active) | > 4.65 µM (inactive) | < 0.01 µM (active) | < 0.01 µM (active) | 0.0188 µM (active) |
| CC(=O)OCC1OC(n2c(S)nc(-c3ccccc3)c(C#N)c2=O)C(OC(C)=O)C(OC(C)=O)C1OC(C)=O (stereo not given) | > 100 µM (inactive) | > 100 µM (inactive) | > 100 µM (inactive) | > 100 µM (inactive) | > 100 µM (inactive) | > 100 µM (inactive) | > 100 µM (inactive) | > 100 µM (inactive) | > 100 µM (inactive) | > 100 µM (inactive) | > 100 µM (inactive) | > 100 µM (inactive) | > 100 µM (inactive) | > 100 µM (inactive) | > 100 µM (inactive) | > 100 µM (inactive) | > 100 µM (inactive) | > 100 µM (inactive) | > 100 µM (inactive) | > 100 µM (inactive) |
| O=C(Nc1ccccc1)OC1OC(COC(=O)c2ccccc2)C(OC(=O)c2ccccc2)C1OS(=O)(=O)c1ccc([N+](=O)[O-])cc1 (stereo not given) | > 100 µM (inactive) | > 100 µM (inactive) | > 100 µM (inactive) | > 100 µM (inactive) | > 100 µM (inactive) | > 100 µM (inactive) | > 100 µM (inactive) | > 100 µM (inactive) | > 100 µM (inactive) | > 100 µM (inactive) | > 100 µM (inactive) | > 100 µM (inactive) | > 100 µM (inactive) | > 100 µM (inactive) | > 100 µM (inactive) | > 100 µM (inactive) | > 100 µM (inactive) | > 100 µM (inactive) | > 100 µM (inactive) | > 100 µM (inactive) |
| CC1=NN(C(=O)c2ccccc2O)C(=O)/C1=C/c1c(O)ccc2ccccc12 | 2.44 µM (inactive) | 2.9 µM (inactive) | 0.689 µM (active) | 1.96 µM (inactive) | 10.2 µM (inactive) | 1.22 µM (inactive) | 2.78 µM (inactive) | 0.587 µM (active) | 3.31 µM (inactive) | 1.8 µM (inactive) | 1.53 µM (inactive) | 1.34 µM (inactive) | 2.03 µM (inactive) | 0.787 µM (active) | 0.723 µM (active) | 2.23 µM (inactive) | 1.69 µM (inactive) | 0.863 µM (active) | 0.287 µM (active) | 0.968 µM (active) |
| CC(=O)OC/C=C/[C@H](O[Si](C)(C)C(C)(C)C)[C@@H](O)/C=C/COC(C)=O | > 100 µM (inactive) | > 100 µM (inactive) | > 100 µM (inactive) | > 100 µM (inactive) | > 100 µM (inactive) | > 100 µM (inactive) | > 100 µM (inactive) | > 100 µM (inactive) | 49.5 µM (inactive) | 23.7 µM (inactive) | > 100 µM (inactive) | > 100 µM (inactive) | > 100 µM (inactive) | > 100 µM (inactive) | > 100 µM (inactive) | > 100 µM (inactive) | > 100 µM (inactive) | > 100 µM (inactive) | > 100 µM (inactive) | > 100 µM (inactive) |
| OC1CCCCCCCCCCC1SCCCCl (stereo not given) | > 100 µM (inactive) | > 100 µM (inactive) | > 100 µM (inactive) | > 100 µM (inactive) | > 100 µM (inactive) | > 100 µM (inactive) | > 100 µM (inactive) | > 100 µM (inactive) | > 100 µM (inactive) | > 100 µM (inactive) | > 100 µM (inactive) | > 100 µM (inactive) | > 100 µM (inactive) | > 100 µM (inactive) | > 100 µM (inactive) | > 100 µM (inactive) | > 100 µM (inactive) | > 100 µM (inactive) | > 100 µM (inactive) | > 100 µM (inactive) |
